Test results published in patent US20160287553A1, “TRANSLATION INHIBITORS IN HIGH-DOSE CHEMO- AND/OR HIGH-DOSE RADIOTHERAPY” (DEUTSCHES KREBSFORSCHUNGSZENTRUM, priority 2013, published 2016).

Legend:
[1] = test system: Primary human T cells; experiment: Ionizing radiation (IR)-induced apoptosis in T cells; assay type: cell-based; details: 24 h, increasing doses of IR, different concentrations of FL3 (FIG. 8b)
Method: (§1) DNA fragmentation was determined by FACS.
The radioprotective effect mediated by Roc-A was the highest when cells were treated with Roc-A 1 h before radiation of cells (FIG. 1d). However, when cells were treated 4 h after radiation, the radioprotective effect was still higher than 50% (FIG. 1d).

[2] = test system: Peripheral blood T cells; experiment: Etoposide-induced apoptotic cell death of T cells (DNA fragmentation, AnnexinV, FSC/SSC); details: for Protection of normal T cells from Etoposide-induced cell death by Roc-derivatives: 50 μM Etoposide, 75 nM Roc-derivative, 24 h (FIG. 6b)
Method: The human malignant cell lines EU-3 (acute lymphoblastic leukemia), DND-41 (T cell leukemia), Hut-78 (T cell lymphoma), SKW6.4 (B cell leukemia), Reh (acute lymphoblastic leukemia), IM-9 (Chronic myeloid leukemia), HL-60 (promyelocytic leukemia), L1236 (Hodgkin's lymphoma) and NCI-H209 (small cell lung cancer) were cultured at 37° C. with 5% CO2 in RPMI-1640 medium (Sigma-Aldrich, Munich, Germany) supplemented with 10% FCS, 100 U/ml Penicillin (Sigma-Aldrich, Munich, Germany) and 100 μg/ml Streptamycin (Sigma-Aldrich, Munich, Germany) SCLC-21H cells (small cell lung cancer) were cultured in DMEM medium (Sigma-Aldrich, Munich, Germany) supplemented with 10% FCS. Peripheral blood T lymphocytes were isolated as previously described (Klas et al., Int Immunol. 1993; 5: 625-630). B lymphocytes and NK cells were isolated by magnetic activated cell sorting using “B cell isolation kit II” (Miltenyi Biotech, Bergisch Gladbach, Germany) and “NK cell isolation kit, human” (Miltenyi Biotech, Bergisch Gladbach, Germany), respectively, according to the manufacturer's instructions. Human neutrophils were separated from peripheral blood mononuclear cells by Ficoll-Paque density centrifugation, followed by incubation in 1.05% dextran for 30 min at room temperature. Remaining erythrocytes were lysed by resuspension in ice-cold 0.2% sodium chloride solution. After 1 min ice-cold 1.6% sodium-chloride solution was added and lysis was stopped by addition of PBS and neutrophils were resuspended in medium at a concentration of 2×10^6 cells/ml. Human primary cardiomyocytes were purchased from PromoCell (Heidelberg, Germany) and cultured in Myocyte Growth Medium (PromoCell, Heidelberg, Germany). Remaining primary human cells were cultured in RPMI-1640 medium with the same conditions described above.
Apoptotic cell death was determined by AnnexinV staining, cellular forward scatter/side scatter (FSC/SSC) profile, or DNA fragmentation. For AnnexinV staining, 2×10^5 cells were treated with different drugs for indicated time periods, washed with AnnexinV binding buffer (0.01 M Hepes, 0.14 M NaCl, 2.5 mM CaCl2), and stained with AnnexinV-FITC antibody (Immunotools, Friesoythe, Germany) and 7-amino-actinomycin D (Sigma-Aldrich, Munich, Germany) for 30 min at 4° C. The amount of AnnexinV positive cells was determined by FACS measurement. DNA fragmentation was determined according to the method of Nicoletti (Nicoletti et al., J Immunol Methods. 1991; 139: 271-279). Briefly, 2×10^5 cells were treated as indicated, washed with PBS and lysed in Nicoletti buffer (0.1% sodium citrate, 0.1% Triton X-100, 50 μg/ml propidium iodide). DNA fragmentation was determined by FACS. Apoptosis-like cells were determined by forward scatter and side scatter (FSC/SSC) index. Specific DNA fragmentation/specific AnnexinV positive cells/specific apoptosis was calculated as follows: (percentage of experimental DNA fragmentation (or Annexin V positive cells or apoptosis)−percentage of spontaneous DNA fragmentation (or Annexin V positive cells or apoptosis)/(100−percentage of spontaneous DNA fragmentation (or Annexin V positive cells or apoptosis))×100.

[3] = test system: p53; experiment: p53 protein expression by immunoblot; assay type: cell-based, human; details: T cells, 100 nM Bortezomib
Method: Immunoblot analysis was carried out as previously described (Polier et al., Chem Biol. 2012; 19: 1093-1104). Briefly, 4-20×10^6 cells were treated with different reagents as indicated and lysed in RIPA buffer (50 mM Tris HCl, 137 mM NaCl, 0.5% Na Deoxycholate, 1% Triton X-100, 0.1% SDS, protease inhibitors). Proteins were separated by SDS-PAGE and transferred to a nitrocellulose membrane (Amersham Biosciences, Little Chalfon, UK) using a semi-dry blotting approach. The following antibodies were used: p53 (DO-1) antibody was purchased from Santa Cruz Biotechnology (Heidelberg, Germany). Tubulin and actin (A5441) antibodies were purchased from Sigma-Aldrich (St. Louis, USA).
The transcription factor p53 is a major regulator of DNA damage-induced apoptosis (Lowe et al., Cell. 1993; 74: 957-967). Therefore, we investigated the effect of Roc-A on the expression level of p53.
p53 protein expression can be regulated at the level of transcription, translation, and ubiquitination-mediated degradation (Marine & Lozano, Cell Death Differ. 2010; 17: 93-102). It has been shown that upon DNA damage p53 undergoes post-translational modifications leading to its deubiquitination and, thus, stabilization (Lee & Gu, Cell Death Differ. 2010; 17: 86-92). To investigate whether Roc-A could decrease p53 stability, we treated T cells with the proteasome inhibitor Bortezomib to block proteasome-mediated degradation.

[4] = test system: non-malignant cells; experiment: Fold change in cell death on raising the Etoposide dose, non-malignant cells (FIG. 9a-b); assay type: cell-based; details: Etoposide from 6.25 μM to 50 μM, 24 h, solvent (FIG. 9a)
Method: (§2) (a) Cells from (b) were grouped into malignant and non-malignant cells. Shown are means of three independent experiments. Abbreviations; HSPCs=hematopoietic stem and progenitor cells. (c-d) Malignant and non-malignant cells were exposed to ionizing radiation (IR) in the presence of 75 nM Roc-A or solvent (DMSO) and cell death was determined after 24 h by DNA fragmentation. Depicted is the fold-change in cell death that was measured when doses of IR were increased from 2 Gy to 10 Gy. (c) Cells from (d) were grouped into malignant and non-malignant cells. Shown are means of three independent experiments.
as §1
(§3) Roc-A specifically prevents the cause of chemotherapeutic and radiation-induced side-effects, i.e., the death of healthy cells. […] Consequently, high-dose therapy is not possible, as side effects would be too high.

[5] = test system: malignant cells; experiment: Fold change in cell death on raising the Etoposide dose, malignant cells (FIG. 9a-b); assay type: cell-based; details: Etoposide from 6.25 μM to 50 μM, 24 h, solvent (FIG. 9a)
Method: as §2, §1, §3

[6] = test system: protein synthesis in T cells; experiment: Translation assay: [35S]methionine incorporation in T cells; assay type: cell-based, human; details: T cells (FIG. 6b)
Method: The relative amount of protein synthesis was determined by measuring the amount of incorporation of ^35S-methionine into the protein. Briefly, cells were pre-cultured in methionine-free medium (supplemented with 10% dialyzed FCS) for 3 h, followed by incubation with 3.5 μCi of ^35S-methionine-labeling mix (PerkinElmer, Waltham, Mass., USA) per 8×10^5 cells for 6 h as indicated. After the treatment, cells were washed twice with ice-cold PBS and lysed in RIPA buffer. 50 μl of each lysate were added to 1 ml of Liquid Scintillation Cocktail solution (Beckman Coulter, Brea, Calif., USA) and the amount of incorporated radioactivity was determined by liquid scintillation counting.
Roc-A has been well documented to inhibit protein translation (Polier et al., Chem Biol. 2012; 19: 1093-1104; Sadlish et al., ACS Chem Biol. 2013; doi:10.1021/cb400158t; Bleumink et al., Cell Death Differ. 2011; 18: 362-370; Cencic et al., PloS one. 2009; 4: e5223). Thus, we expected that Roc-A-mediated suppression of genotoxin-induced p53 upregulation may be regulated by inhibition of p53 protein synthesis.

[7] = test system: ERK; details: Polier et al., op. cit.; cited from earlier work

Compound: COc1cc(OC)c2c(c1)O[C@@]1(c3ccc(Br)cc3)[C@H](c3ccccc3)C[C@@H](O)[C@@]21O (racemic) [FL3, racemic bromo-demethoxy-rocaglaol]
- Protection of T cells from IR-induced apoptotic cell death by FL3 [1]: protects T cells
- Protection of T cells from Etoposide-induced apoptotic cell death by FL3 ([2]; 24 h, increasing doses of Etoposide, different concentrations of FL3 (FIG. 8a)): protects T cells

Compound: CC(C)C[C@H](NC(=O)[C@H](Cc1ccccc1)NC(=O)c1cnccn1)B(O)O [Bortezomib, reference compound]
- Interference with Roc-A block of Etoposide-induced p53 upregulation ([3]; 50 μM Etoposide, 75 nM Roc-A, 4 h (FIG. 6a)): did also not interfere with the ability of Roc-A to block Etoposide-induced p53 upregulation
- p53 level on proteasome inhibition ([3]; absence of Roc-A (FIG. 6a)): led to an increase in p53
- p53 level on proteasome inhibition ([3]; presence of 75 nM Roc-A (FIG. 6a)): could not increase p53

Compound: COc1cc([C@@H]2c3cc4c(cc3[C@@H](O[C@@H]3O[C@@H]5CO[C@@H](C)O[C@H]5[C@H](O)[C@H]3O)[C@H]3COC(=O)[C@H]23)OCO4)cc(OC)c1O [Etoposide, reference compound]
- Increase in Etoposide-induced cell death [4]: up to 3 fold
- Increase in Etoposide-induced cell death [5]: approximately 3 fold
- Cell death of normal T cells by the genotoxin ([2]; 24 h, increasing concentrations of Etoposide): caused cell death of normal T cells

Compound: COC(=O)C1C(OC(C)=O)C2(O)c3c(OC)cc(OC)cc3OC2(c2ccc(OC)cc2)C1c1ccccc1 (centres unmarked) [Roc-AA, C-1-O-acetyl-methylrocaglate]
- Inhibition of [35S]methionine incorporation (protein translation) [6]: did not inhibit protein translation
- Inhibitory effect on ERK activity / activation [7]: do not show any or very little inhibitory effects on ERK activity
- Protection of normal T cells from Etoposide-induced cell death by Roc-derivatives [2]: did not protect T cells

Compound: COc1ccc([C@@]23Oc4cc(OC)cc(OC)c4[C@]2(O)[C@H](OC(C)=O)[C@H](C(=O)N(C)C)[C@H]3c2ccccc2)cc1 [Roc-AB, 1-O-acetyl-rocaglamide]
- Inhibition of [35S]methionine incorporation (protein translation) [6]: inhibited [^35S]methionine incorporation at different degrees
- Inhibitory effect on ERK activity / activation [7]: inhibit ERK activation with different efficacies
- Protection of normal T cells from Etoposide-induced cell death by Roc-derivatives [2]: different levels of protection

Compound: COC(=O)C1C(O)C2(O)c3c(OC)cc(OC)cc3OC2(c2ccc3c(c2)OCO3)C1c1ccccc1 (centres unmarked) [Roc-AF, 30,40-methylendioxy-methylrocaglate]
- Inhibition of [35S]methionine incorporation (protein translation) [6]: did not inhibit protein translation
- Inhibitory effect on ERK activity / activation [7]: do not show any or very little inhibitory effects on ERK activity
- Protection of normal T cells from Etoposide-induced cell death by Roc-derivatives [2]: did not protect T cells

Compound: COc1cc(OC)c2c(c1)OC1(c3ccc4c(c3)OCO4)C(c3ccccc3)CC(=O)C21O (centres unmarked) [Roc-AR, 1-oxo-40-demethoxy-30,40-methylenedioxyrocaglaol]
- Inhibition of [35S]methionine incorporation (protein translation) [6]: inhibited [^35S]methionine incorporation at different degrees
- Inhibitory effect on ERK activity / activation [7]: inhibit ERK activation with different efficacies
- Protection of normal T cells from Etoposide-induced cell death by Roc-derivatives [2]: different levels of protection

Compound: COc1cc(OC)c2c(c1)OC1(c3ccc(OC)c(O)c3)C(c3ccccc3)C(C(=O)N(C)C)C(OC(C)=O)C21O (centres unmarked) [Roc-I, C-1-O-acetyl-30-hydroxy-rocaglamide]
- Inhibition of [35S]methionine incorporation (protein translation) [6]: did not inhibit protein translation
- Inhibitory effect on ERK activity / activation [7]: do not show any or very little inhibitory effects on ERK activity
- Protection of normal T cells from Etoposide-induced cell death by Roc-derivatives [2]: did not protect T cells

Compound: COC(=O)[C@H]1[C@@H](O)[C@@]2(O)c3c(OC)cc(OC)cc3O[C@@]2(c2ccc(OC)c(O)c2)[C@@H]1c1ccccc1 [Roc-J, 30-hydroxyaglafoline]
- Inhibition of [35S]methionine incorporation (protein translation) [6]: inhibited [^35S]methionine incorporation at different degrees
- Inhibitory effect on ERK activity / activation [7]: inhibit ERK activation with different efficacies
- Protection of normal T cells from Etoposide-induced cell death by Roc-derivatives [2]: different levels of protection

Compound: CNC(=O)[C@H]1[C@@H](O)[C@@]2(O)c3c(OC)cc(OC)cc3O[C@@]2(c2ccc(OC)cc2)[C@@H]1c1ccccc1 [Roc-Q, demethylrocaglamide]
- Inhibition of [35S]methionine incorporation (protein translation) [6]: inhibited [^35S]methionine incorporation at different degrees
- Inhibitory effect on ERK activity / activation [7]: inhibit ERK activation with different efficacies
- Protection of normal T cells from Etoposide-induced cell death by Roc-derivatives [2]: different levels of protection
